Reference: publication PMC10410612 (2023)

How the values were obtained:
[1] = test system: poly(rA)·poly(rU) (RNA, polymer) A/U; test: UV-vis absorbance titration, HypSpec2014 fit; settings: NaCac 2.5 mM; pH 7.0, 25.0 °C; per base pair, site size n = 1
[2] = test system: poly(rU)*poly(rA)·poly(rU) (RNA, polymer) U/A/U; test: UV melting; settings: NaCac 2.5 mM; pH 7.0; 1:1 ratio complex/polynucleotide; free Tm 46.9 °C; per base
[3] = test system: poly(rA)·poly(rU) (RNA, polymer) A/U; test: ethidium bromide displacement fluorescence; settings: NaCac 2.5 mM; pH 7.0; tracer ethidium bromide; some interaction
[4] = test system: poly(rA)·poly(rU) (RNA, polymer) A/U; test: UV melting; settings: NaCac 2.5 mM; pH 7.0; 1:1 ratio complex/polynucleotide; free Tm 47.9 °C; per base
[5] = test system: poly(rU)*poly(rA)·poly(rU) (RNA, polymer) U/A/U; test: UV-vis absorbance titration, HypSpec2014 fit; settings: NaCac 2.5 mM; pH 7.0, 25.0 °C; per base triplet, site size n = 1

C=[C-]c1cccc(OC(=O)c2ccccc2OC(C)=O)c1.[C-]#[O+].[C-]#[O+].[C-]#[O+].[Ru+2].[Ru+2].c1cc[cH-]c1.c1cc[cH-]c1
K [1]: (6.0 ± 0.9) × 10^5 | ΔTm [2]: 1.6 ± 0.5 °C | binding [3]: yes | ΔTm [4]: -6.5 ± 0.9 °C | K [5]: (3.1 ± 0.9) × 10^5
